Test results reported in US20260007683A1, “PHARMACEUTICAL COMPOSITIONS COMPRISING HIV INTEGRASE INHIBITORS” (Gilead Sciences, Inc., priority 2024, published 2026).

Assays:
[1] = Hygroscopicity by dynamic vapor sorption (DVS); assay type: physicochemical; conditions: for change of solid form post DVS experiment: after DVS cycle 5-95% RH at 25° C.; for water absorbed (dynamic vapor sorption): up to 95% RH at 25° C.
Experimental: Hygroscopicity was studied using dynamic vapor sorption (DVS, TA Q5000 SA, TA Instruments, New Castle, DE or DVS, DVS Intrinsic, Surface Measurement Systems, London, UK). A sample (1-20 mg) was placed in an aluminum DVS pan and loaded on the sample side of the twin pan balance. The water sorption and desorption were studied as a function of relative humidity (RH) at 25° C. In 10% RH increments, the relative humidity was increased from 5% RH to 95% RH and then decreased back to 5%. […] Data analysis was performed using Universal Analysis 2000 Version 4.7A (TA Instruments, New Castle, DE) for TA DVS runs and Microsoft Excel for SMS DVS runs.

[2] = Drying of solid form under ambient conditions (form conversion); assay type: physicochemical
From the text: Compound of Formula I, Form II is a metastable methanol solvated phase. It was isolated when compound of Formula I, Form I was slurried in methanol for about 60 days and identified by x-ray of the wet cake.

Compound | change of solid form post DVS experiment [1] | water absorbed (dynamic vapor sorption) [1] | form conversion upon drying [2]
O=C(NCc1c(F)cc(F)cc1F)c1cn2c(c(O)c1=O)C(=O)N1CCCC[C@H]2C1 [Compound of Formula I, Form III, (7S)-12-hydroxy-1,11-dioxo-N-(2,4,6-trifluorobenzyl)-1,4,5,6,7,11-hexahydro-3H-2,7-methanopyrido[1,2-a][1,4]diazonine-10-carboxamide] | not have changed form | about 0.87% | 
O=C(NCc1c(F)cc(F)cc1F)c1cn2c(c(O)c1=O)C(=O)N1CCCC[C@H]2C1 [Compound of Formula I, Form I, (7S)-12-hydroxy-1,11-dioxo-N-(2,4,6-trifluorobenzyl)-1,4,5,6,7,11-hexahydro-3H-2,7-methanopyrido[1,2-a][1,4]diazonine-10-carboxamide] | not have changed form | about 0.097% | 
O=C(NCc1c(F)cc(F)cc1F)c1cn2c(c(O)c1=O)C(=O)N1CCCC[C@H]2C1 [Compound of Formula I, Form IV, (7S)-12-hydroxy-1,11-dioxo-N-(2,4,6-trifluorobenzyl)-1,4,5,6,7,11-hexahydro-3H-2,7-methanopyrido[1,2-a][1,4]diazonine-10-carboxamide] | not have changed form | about 3.5% | 
O=C(NCc1c(F)cc(F)cc1F)c1cn2c(c(O)c1=O)C(=O)N1CCCC[C@H]2C1 [Compound of Formula I, Form II, (7S)-12-hydroxy-1,11-dioxo-N-(2,4,6-trifluorobenzyl)-1,4,5,6,7,11-hexahydro-3H-2,7-methanopyrido[1,2-a][1,4]diazonine-10-carboxamide] |  |  | convert to compound of Formula I, Form III
